These results are taken from patent US20170355959A1, “METHODS FOR MOBILISING POPULATIONS OF STEM CELLS” (Imperial Innovations Limited, priority 2014, published 2017).

Like-named read-outs stand apart in the source and are kept apart here.

For assay [1], the system named is HSPCs. Briefly: Mobilization of HSPCs into peripheral blood (CFU-HPC assay). In kind it is in vivo, mice. The note with it: for level of HSPC mobilization: 3 day pre-treatment with one agonist alone, beta 3 agonist and CXCR4 antagonist on day 4; for priming of HSPCs for mobilization: 4 day pre-treatment, CB1 and CB2 agonists in combination, even with FAAH inhibitor; for effect on HSPC mobilization induced by 4 day beta 3 adrenergic agonist and CXCR4 antagonist: inhibitor or antagonist given 60 minutes prior to BRL 37344, once daily for 4 days. The procedure: (§1) Mice were administered the β-adrenergic agonists isoproterenol (10 mg/kg i.p.), clenbuterol (5 mg/kg i.p.) and BRL 37344 (10 mg/kg i.p.), the cannabinoid receptor agonists ACEA (10 mg/kg i.p.) and GP1a (5 mg/kg i.p.), or vehicle either on 4 consecutive days or 2 hours prior to the cull. 1 hour after the last injection, mice were administered the CXCR4 antagonist AMD3100 (5 mg/kg i.p.) or vehicle. 1 hour later their blood was collected via cardiac puncture for enumeration of circulating CFU-HPCs and CFU-Fs. Mice were administered murine G-CSF (100 μg/kg i.p.) or vehicle on 4 consecutive days. On day 5, blood was collected via cardiac puncture for enumeration of circulating HSPCs.
(§2) Harvested peripheral blood or perfusate was red blood cell-lysed and 1×10^5 cells were added to tissue culture-treated petri dishes containing 1 ml of Methocult™ (M3434; StemCell Technologies) to select for CFU-HPCs. Cultures were incubated at 37° C. and quantified on day 12. Similarly, 1×10^6 bone marrow cells harvested by bone marrow flush of the hind limb femur were plated for CFU-HPCs.

Assay [2] has as its system CFU-Fs (MSPCs). Briefly: Mobilization of MSPCs into peripheral blood (CFU-F assay). In kind it is in vivo, mice. To be noted: for priming of MSCs for mobilization: 4 day pre-treatment, CB1 and CB2 agonists in combination, even with FAAH inhibitor.
Assay [3] concerns HPCs. In words: In situ perfusion of mouse hind limb, CFU-HPCs in perfusate. In kind it is in vivo, mice. The procedure:
(§3) Mice were administered BRL 37344 (10 mg/kg i.p.) or vehicle on 4 consecutive days. 1 hour after the last injection, the mice were anaesthetized. The femoral vein and artery were exposed and cannulated in situ immediately after the hind limb was isolated by occlusion of the surrounding arteries as previously described (Pitchford et al, 2009; Pitchford et al, 2010). Perfusion buffer was infused via the arterial cannula and removed from the venous cannula using a Minipuls Peristaltic Pump (Anachem). The hind limb was initially infused with AMD3100 (0.1 mM) or vehicle for 10 minutes using an infusion/withdrawal pump (Harvard Instruments) and was further perfused for 50 minutes with perfusion buffer (Pitchford et al, 2010). The perfusate was collected over 60 minutes and then centrifuged and resuspended in DMEM (Gibco) +20% fetal bovine serum for enumeration of CFU-HPCs and CFU-Fs.
as §2

Assay [4] has as its system CFU-Fs (MSCs). In words: In situ perfusion of mouse hind limb, CFU-Fs in perfusate. In kind it is in vivo, mice. The protocol:
as §3
Harvested peripheral blood or perfusate was red blood cell-lysed and 1×10^6 cells were added to tissue culture-treated 6-well plates containing 3 ml of Mesencult™ (05502; StemCell Technologies) to select for CFU-Fs. Similarly, 1×10^6 bone marrow cells harvested by bone marrow flush of the hind limb femur were plated for CFU-Fs. Cultures were incubated at 37° C. and media was changed on day 7. Bone marrow-derived CFU-Fs were enumerated on day 13 and blood- and perfusate-derived CFU-Fs were enumerated on day 21. Blood derived-CFU-Fs were further expanded and assessed for mesenchymal lineage markers by flow cytometry and following CD45 depletion (flow cytometry sorting of CD45 negative for mesenchymal trilineage differentiation (Supplemental Experimental Procedures).

Assay [5] relates to FFAs. To be noted: infusion directly into the vasculature of the canine femur; cited from earlier work.
The test system of assay [6] is free fatty acids. Briefly: Free fatty acid assay in blood plasma. In kind it is in vivo, mice. The note with it: pre-treatment 60 minutes prior to the b3 adrenergic agonist, 4 days. The procedure:
as §1
Free fatty acid content in blood plasma was quantified using a serum/plasma fatty acid detection Kit (Zen Bio) and the assay was performed according to the manufacturers' instructions. Data are expressed as μM concentration of free fatty acids.

Assay [7] has as its system MSCs. To be noted: G-CSF and/or the CXCR4 antagonist; cited from earlier work.
The test system of assay [8] is HSPCs. The note with it: humans; cited from earlier work.
The subject of assay [9] is HSPCs. To be noted: mice; cited from earlier work.
For assay [10], the system named is total white blood cells. The note with it: CXCR4 antagonist alone. The protocol: as §1
The subject of assay [11] is CXCL12. To be noted: in vivo; cited from earlier work.
[12] abbreviates: 3 days CB1 and CB2 agonists in combination, beta 3 agonist on the fourth day prior to CXCR4 antagonist.
Where [13] appears, read: four day pretreatment, b3 adrenergic agonist in combination with FAAH inhibitor.
Where [14] appears, read: acute treatment (2 h), alone or in combination with acute CXCR4 antagonist.
The mark [15] stands for this setting: pre-treated once daily for 4 days, then AMD3100, blood 1 hour later.
Where [16] appears, read: AMD3100 alone, 5 mg/kg i.p., blood 1 hour later.
Setting [17] is: vehicle pre-treated mice, hind limb infused with CXCR4 antagonist for 10 min.

Take `CCCCC/C=C\C/C=C\C/C=C\C/C=C\CCCC(=O)NCCCl` [ACEA, Arachidonyl-2-chloroethylamide]: in assay [1], the “level of HSPC mobilization” value is recorded as “significantly less than that achieved using these agonists in combination” and the “priming of HSPCs for mobilization” value is reported as “not sufficient to prime MSCs or HSPCs for mobilization”. For the same molecule, the HSPC mobilization result in [1] (setting [12]) is “stem cells were mobilized”. Besides, in [2], the “priming of MSCs for mobilization” value was “not sufficient to prime MSCs or HSPCs for mobilization”. In [2] (mouse, in vivo), the CFU-F mobilization result is “stem cells were mobilized” and the “level of CFU-F mobilization” value is on record as “significantly less than that achieved using these agonists in combination”.
Turning to `NC(=O)c1cccc(-c2cccc(OC(=O)NC3CCCCC3)c2)c1` [URB597], the “effect on HSPC mobilization induced by 4 day beta 3 adrenergic agonist and CXCR4 antagonist” value (shortened to “effect on HSPC mobilization induced”) in assay [1] is reported as “significantly enhanced”. In addition, the “effect on CFU-F mobilization induced by 4 day beta 3 adrenergic agonist and CXCR4 antagonist” value (shortened to “effect on CFU-F mobilization induced”) in assay [2] (mouse, in vivo) is recorded as “significantly enhanced”. Further, in assay [3] (setting [13]), the “HPC egress from the bone marrow in response to infusion of the CXCR4 antagonist” value was “significantly enhanced both HPC and MSC egress from the bone marrow”. Moreover, the “MSC egress from the bone marrow in response to infusion of the CXCR4 antagonist” value in assay [4] (setting [13]) is “significantly enhanced both HPC and MSC egress from the bone marrow”.
On to `CC(C)NCC(O)c1ccc(O)c(O)c1` (centres unmarked) [isoproterenol], for which the “circulating numbers of HSPCs” value in assay [1] (4 day pre-treatment alone) is listed as “did not change circulating numbers of HSPCs or CFU-Fs”. The “mobilization of HSPCs” value in [1] (setting [14]) was “did not enhance the mobilization of HSPCs above AMD3100 alone”. Also, in assay [1] (setting [15]), the “circulating HSPC numbers” value is on record as “significantly elevated over treatment with the CXCR4 antagonist alone”. In assay [2] (4 day pre-treatment alone), the “circulating numbers of CFU-Fs” value was “did not change circulating numbers of HSPCs or CFU-Fs”. The “CFU-Fs in the blood” value in [2] (setting [14]) is recorded as “did not result in detectable numbers of CFU-Fs in the blood”. For the same molecule, the “circulating CFU-Fs” value in assay [2] (setting [15]) is “CFU-Fs were mobilized”. In addition, the “release of FFAs into the femoral vein” value in [5] is “release of FFAs into the femoral vein”.
Consider `CCCCCCCCCCC[C@@H](C[C@@H]1OC(=O)[C@H]1CCCCCC)OC(=O)[C@H](CC(C)C)NC=O` [Orlistat], for which, in assay [1], the “effect on HSPC mobilization induced” value was “completely abrogated”. The “effect on CFU-F mobilization induced” value in assay [2] (inhibitor or antagonist given 60 minutes prior to BRL 37344, once daily for 4 days) is recorded as “completely abrogated”. Also, the “effect on the b3 adrenergic agonist induced increase of FFA levels in plasma” value in assay [6] is “attenuated”.
As for `COc1ccc2cc([C@H](C)C(=O)O)ccc2c1` [Naproxen], in assay [1], the “effect on HSPC mobilization induced” value is given as “significant increase in the mobilization of both HSPCs or CFU-Fs”.
For the molecule `Cc1ccc2c(c1)Cc1c(C(=O)NN3CCCCC3)nn(-c3ccc(Cl)cc3Cl)c1-2` [GP1a, N-(Piperidin-1-yl)-1-(2,4-dichlorophenyl)-1,4-dihydro-6-methylindeno[1,2-c]pyrazole-3-carboxamide], in assay [1], the “level of HSPC mobilization” value is reported as “significantly less than that achieved using these agonists in combination” and the “priming of HSPCs for mobilization” value is “not sufficient to prime MSCs or HSPCs for mobilization”. In assay [1] (setting [12]), the HSPC mobilization entry was “stem cells were mobilized”. For the same molecule, the “priming of MSCs for mobilization” value in assay [2] is “not sufficient to prime MSCs or HSPCs for mobilization”. Further, in assay [2] (mouse, in vivo), the CFU-F mobilization entry is on record as “stem cells were mobilized” and the “level of CFU-F mobilization” value is “significantly less than that achieved using these agonists in combination”.
Turning to `CC(C)(C)NCC(O)c1cc(Cl)c(N)c(Cl)c1` (centres unmarked) [Clenbuterol], the HSPC mobilization entry in [1] (once daily for 4 days, alone or in combination with the CXCR4 antagonist) is on record as “did not stimulate HSPC or MSC mobilization”. Besides, in [2] (mouse, in vivo), the MSC mobilization result is listed as “did not stimulate HSPC or MSC mobilization”.
As for `COc1ccc(C(=O)c2c(C)n(CCN3CCOCC3)c3cc(I)ccc23)cc1` [AM630], the “effect on HSPC mobilization induced” value in assay [1] is “significantly suppressed”. Moreover, in assay [2] (mouse, in vivo), the “effect on CFU-F mobilization induced” value is reported as “significantly suppressed”.
As to `Cc1c(C(=O)NN2CCCCC2)nn(-c2ccc(Cl)cc2Cl)c1-c1ccc(I)cc1` [AM251], the “effect on HSPC mobilization induced” value in assay [1] is given as “significantly suppressed”.
For the molecule `c1cc(CN2CCCNCCNCCCNCC2)ccc1CN1CCCNCCNCCCNCC1` [AMD3100], the “mobilization of HSPCs into the blood” value in assay [1] (setting [16]) is given as “stimulated mobilization of HSPCs into the blood”. Besides, the “mobilisation of MSCs from the bone marrow into the blood” value in assay [7] is given as “not effective”. Also, the “circulating numbers of HSPCs” value in assay [8] and in assay [9] was “stimulates a rapid rise in circulating numbers of HSPCs” in each case. Moreover, the CFU-Fs in blood entry in assay [2] (setting [16]) is on record as “no colony forming units-fibroblasts (CFU-Fs; a measure of MSCs) were detectable”. Also, the “HPCs mobilized from the bone marrow” value in assay [3] (setting [17]) is listed as “HPCs but not MSCs were mobilized from the bone marrow”. Besides, the “mobilization of total white blood cells” value in [10] is reported as “significantly increased”. For the same molecule, the “MSCs mobilized from the bone marrow” value in [4] (setting [17]) is on record as “HPCs but not MSCs were mobilized from the bone marrow”.

B1: G-CSF: cytokine, granulocyte colony stimulating factor; murine G-CSF (PeproTech) (protein, UniProt P09920 31-208, looked up)
Granulocyte …: VPLVTVSALPPSLPLPRSFLLKSLEQVRKIQASGSVLLEQLCATYKLCHPEELVLLGHSLGIPKASLSGCSSQALQQTQCLSQLHSGLCLYQGLLQALSGISPALAPTLDLLQLDVANFATTIWQQMENLGVAPTVQPTQSAMPAFTSAFQRRAGGVLAISYLQGFLETARLALHHLA
Turning to B1, in assay [1] (in the presence or absence of AM251 or AM630, 4 consecutive days), the “G-CSF-induced mobilization of haematopoietic progenitor cells” value was “Independent of Cannabinoid Receptor Signalling”. The “mobilisation of MSCs from the bone marrow into the blood” value in assay [7] is recorded as “not effective”. The “levels of CXCL12 in the bone marrow” value in assay [11] is reported as “reducing levels of CXCL12 in the bone marrow”. The “effect on β3-AR agonist/AMD3100 mobilisation of MSPCs” value in assay [2] (mouse, in vivo, ip) is recorded as “impairs”.
